Columns and labels:
Endothelial lipase (EL) = Endothelial lipase (EL) (Homo sapiens (Human), UniProt Q9Y5X9); assay: EL assay: endothelial lipase activity with fluorescent substrate A10070 in DMPG vesicles; format: biochemical
How it was run: (§1)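 Vesicles prepared: A10070 dried with DMPG, resuspended in HEPES pH 8.0/NaCl/EDTA, sonicated on ice. Enzyme incubated with compound 30 min at 37° C. Reaction started with 1:10 diluted vesicles. Fluorescence (490/530 nm) followed 60 min; slope from 300–900 secs gives rate.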

hepatic lipase (HL) = hepatic lipase (HL) (Homo sapiens (Human), UniProt P11150); assay: HL assay: hepatic lipase activity with fluorescent substrate A10070 in DMPG vesicles; format: biochemical
How it was run: as §1

hepatic lipase (HL), sequence (P11150 23-499, species assumed): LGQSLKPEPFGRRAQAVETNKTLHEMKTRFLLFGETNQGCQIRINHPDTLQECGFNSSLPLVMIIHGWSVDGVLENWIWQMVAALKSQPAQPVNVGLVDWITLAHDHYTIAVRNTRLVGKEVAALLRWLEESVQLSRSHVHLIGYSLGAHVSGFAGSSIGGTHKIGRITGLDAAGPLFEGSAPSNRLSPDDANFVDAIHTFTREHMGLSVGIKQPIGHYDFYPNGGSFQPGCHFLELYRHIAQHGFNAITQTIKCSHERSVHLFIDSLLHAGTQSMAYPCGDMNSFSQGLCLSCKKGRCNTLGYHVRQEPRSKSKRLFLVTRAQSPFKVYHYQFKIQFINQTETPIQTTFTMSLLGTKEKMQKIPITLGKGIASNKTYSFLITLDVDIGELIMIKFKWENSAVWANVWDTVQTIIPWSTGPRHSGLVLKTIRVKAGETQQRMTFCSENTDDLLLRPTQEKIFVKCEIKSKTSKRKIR
Endothelial lipase (EL), sequence (Q9Y5X9 21-500): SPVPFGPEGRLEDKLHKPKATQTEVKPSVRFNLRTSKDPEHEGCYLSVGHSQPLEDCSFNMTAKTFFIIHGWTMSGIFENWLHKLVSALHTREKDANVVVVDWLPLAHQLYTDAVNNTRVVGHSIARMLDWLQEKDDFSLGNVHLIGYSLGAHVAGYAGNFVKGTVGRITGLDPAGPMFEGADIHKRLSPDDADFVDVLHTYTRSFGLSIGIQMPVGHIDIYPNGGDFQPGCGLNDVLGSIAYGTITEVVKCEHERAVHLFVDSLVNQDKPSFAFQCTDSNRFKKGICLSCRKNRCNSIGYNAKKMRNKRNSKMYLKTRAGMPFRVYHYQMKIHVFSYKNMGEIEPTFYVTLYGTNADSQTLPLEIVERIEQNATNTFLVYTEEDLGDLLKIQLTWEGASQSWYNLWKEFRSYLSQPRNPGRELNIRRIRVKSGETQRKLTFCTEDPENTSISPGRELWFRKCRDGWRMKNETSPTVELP

Row | Structure (SMILES) | IC50 (Endothelial lipase (EL)) [nM] | IC50 (hepatic lipase (HL)) [nM]
1 | CS(=O)(=O)C(C(=O)NCCS(N)(=O)=O)c1nc2ccc(-c3ccc(-c4ncco4)cc3)cc2s1 (stereo not drawn) [Example B224, 2-methanesulfonyl-2-{6-[4-(1,3-oxazol-2-yl)phen-yl]-1,3-benzothiazol-2-yl}-N-(2-sulfamoylethyl)a-cetamide] | 8.4 | 10
2 | Cc1nnc(-c2ccc(-c3ccc4nc(C(C(=O)NCCS(N)(=O)=O)S(C)(=O)=O)sc4c3)cc2)o1 (stereo not drawn) [Example B225, 2-methanesulfonyl-2-{6-[4-(5-methyl-1,3,4-oxadiazol-2-yl)phenyl]-1,3-benzothiazol-2-yl}-N-(2-sulfamoylethyl)a-cetamide] | 4.9 | 15.4
3 | NS(=O)(=O)CCNC(=O)C(c1nc2ccc(-c3ccc(C(=O)NC4CC4)cc3)cc2s1)S(=O)(=O)Cc1ccc(OC(F)(F)F)cc1 (stereo not drawn) [Example B226, N-cyclopropyl-4-(2-{[(2-sulfamoylethyl)carbamoyl][4-(trifluoromethoxy)phen-yl]methanesulfonyl-methyl}-1,3-benzothiazol-6-yl)benzamide] | 0.5 | 74
4 | NC(=O)c1ccc(-c2ccc3nc(C(C(=O)NCCS(N)(=O)=O)S(=O)(=O)Cc4ccc(OC(F)(F)F)cc4)sc3c2)cc1 (stereo not drawn) [Example B227, 4-(2-{[(2-sulfamoylethyl)car-bamoyl][4-(trifluoromethoxy)phen-yl]methanesulfonyl-methyl}-1,3-benzothiazol-6-yl)benzamide] | 0.5 | 80.8
5 | NC(=O)c1ccc(-c2ccc3nc(C(C(=O)NCCS(N)(=O)=O)S(=O)(=O)CCC(F)(F)F)sc3c2)cc1 (stereo not drawn) [Example B228, 4-(2-{[(2-sulfamoylethyl)car-bamoyl](3,3,3-trifluoro-propanesulfonyl)methyl}-1,3-benzothiazol-6-yl)ben-zamide] | 9.2 | 250
6 | CN(C)C(=O)c1ccc(-c2ccc3nc(C(C(=O)NCCS(N)(=O)=O)S(=O)(=O)Cc4ccc(OC(F)(F)F)cc4)sc3c2)cc1F (stereo not drawn) [Example B229, 2-fluoro-N,N-dimethyl-4-(2-{[(2-sulfamoylethyl)car-bamoyl][4-(trifluoro-methoxy)phenyl]methane-sulfonylmethyl}-1,3-benzothiazol-6-yl)ben-zamide] | 29.2 | 242
7 | CN(C)C(=O)c1ccc(-c2ccc3nc(C(C(=O)NCCS(N)(=O)=O)S(=O)(=O)CCC(F)(F)F)sc3c2)cc1F (stereo not drawn) [Example B230, 2-fluoro-N,N-dimethyl-4-(2-{[(2-sulfamoylethyl)car-bamoyl](3,3,3-trifluoro-propanesulfonyl)meth-yl}-1,3-benzothiazol-6-yl)benzamide] | 4.6 | 37.4
8 | COCCS(=O)(=O)C(C(=O)NCc1cc(C(C)C)no1)c1nc2ccc(-c3ccccc3)cc2s1 (stereo not drawn) [Example B232, 2-(2-methoxyethane-sulfonyl)-2-(6-phenyl-1,3-benzothiazol-2-yl)-N-{[3-(propan-2-yl)-1,2-oxazol-5-yl]methyl}acetamide] | 45.9 | 0.8
9 | Cc1cc(CNC(=O)C(c2nc3ccc(-c4ccccc4)cc3s2)S(C)(=O)=O)on1 (stereo not drawn) [Example B233] | 31.6 | 3.6
10 | COCCS(=O)(=O)C(C(=O)NCc1cc(C)no1)c1nc2ccc(-c3ccccc3)cc2s1 (stereo not drawn) [Example B234, 2-(2-methoxyethane-sulfonyl)-N-[(3-methyl-1,2-oxazol-5-yl)methyl]-2-(6-phenyl-1,3-benzothiazol-2-yl)a-cetamide] | 4.9 | 0.5
11 | Cn1nccc1-c1ccc2nc(C(C(=O)NCCS(N)(=O)=O)S(C)(=O)=O)sc2c1 (stereo not drawn) [Example B235, 2-methanesulfonyl-2-[6-(1-methyl-1H-pyrazol-5-yl)-1,3-benzothiazol-2-yl]-N-(2-sulfamoylethyl)a-cetamide] | 5.1 | 3050
12 | CC(=O)Nc1ccc(-c2ccc3nc(C(C(=O)NCCS(N)(=O)=O)S(=O)(=O)CCC(F)(F)F)sc3c2)cc1 (stereo not drawn) [Example B236, 2-[6-(4-acetamidophenyl)-1,3-benzothiazol-2-yl]-N-(2-sulfamoylethyl)-2-(3,3,3-trifluoropropane-sulfonyl)acetamide] | 0.8 | 55.3
13 | NS(=O)(=O)CCNC(=O)C(c1nc2ccc(-c3ccc(S(=O)(=O)NCCO)cc3)cc2s1)S(=O)(=O)Cc1ccc(F)cc1 (stereo not drawn) [Example B238, 2-[(4-fluorophenyl)methane-sulfonyl]-2-(6-{4-[(2-hydroxyethyl)sulfa-moyl]phenyl}-1,3-benzothiazol-2-yl)-N-(2-sulfamoylethyl)a-cetamide] | 9.8 | 234
14 | COCc1ccc(-c2ccc3nc(C(C(=O)NCCS(N)(=O)=O)S(=O)(=O)CCC(F)(F)F)sc3c2)cc1 (stereo not drawn) [Example B239, 2-{6-[4-(methoxymeth-yl)phenyl]-1,3-benzothiazol-2-yl}-N-(2-sulfamoyl-ethyl)-2-(3,3,3-trifluoro-propanesulfonyl)acetamide] | 9.4 | 7.3
15 | NS(=O)(=O)CCNC(=O)C(c1nc2ccc(-c3ccc(CCO)cc3)cc2s1)S(=O)(=O)Cc1ccc(F)cc1 (stereo not drawn) [Example B240, 2-[(4-fluorophenyl)methane-sulfonyl]-2-{6-[4-(2-hydroxyethyl)phenyl]-1,3-benzothiazol-2-yl}-N-(2-sulfamoylethyl)a-cetamide] | 25.7 | 76.6
16 | CC(C)(O)CNC(=O)c1ccc(-c2ccc3nc(C(C(=O)NCCS(N)(=O)=O)S(C)(=O)=O)sc3c2)cc1 (stereo not drawn) [Example B241, N-(2-hydroxy-2-methyl-propyl)-4-(2-{methane-sulfonyl[(2-sulfamoyl-ethyl)carbamoyl]methyl}-1,3-benzothiazol-6-yl)ben-zamide] | 6.4 | 607
17 | CC(C)(O)CNC(=O)c1ccc(-c2ccc3nc(C(C(=O)NCCS(N)(=O)=O)S(=O)(=O)Cc4ccc(F)cc4)sc3c2)cc1 (stereo not drawn) [Example B242, 4-{2-[(4-fluorophenyl)meth-anesulfonyl[(2-sulfa-moylethyl)carbamoyl]meth-yl]-1,3-benzothiazol-6-yl}-N-(2-hydroxy-2-methylpropyl)benzamide] | 2.7 | 109
18 | NS(=O)(=O)CCNC(=O)C(c1nc2ccc(-c3cccc(Cl)c3)cc2s1)S(=O)(=O)Cc1ccc(F)cc1 (stereo not drawn) [Example B243, 2-[6-(3-chlorophenyl)-1,3-benzothiazol-2-yl]-2-[(4-fluorophenyl)methanesulfon-yl]-N-(2-sulfamoylethyl)a-cetamide] | 4.8 | 2.4
19 | COC(C)(C)CNC(=O)c1ccc(-c2ccc3nc(C(C(=O)NCCS(N)(=O)=O)S(=O)(=O)CC4CC4)sc3c2)cc1 (stereo not drawn) [Example B244, 4-(2-{cyclopropylmethane-sulfonyl[(2-sulfamoyl-ethyl)carbamoyl]methyl}-1,3-benzothiazol-6-yl)-N-(2-methoxy-2-methyl-propyl)benzamide] | 0.9 | 12
20 | NS(=O)(=O)CCNC(=O)C(c1nc2ccc(-c3ccc(CO)cc3)cc2s1)S(=O)(=O)Cc1ccc(F)cc1 (stereo not drawn) [Example B245, 2-[(4-fluorophenyl)meth-anesulfonyl]-2-{6-[4-(hydroxymethyl)phenyl]-1,3-benzothiazol-2-yl}-N-(2-sulfamoylethyl)a-cetamide] | 2.1 | 130
21 | COCCN(C)C(=O)c1ccc(-c2ccc3nc(C(C(=O)NCCS(N)(=O)=O)S(C)(=O)=O)sc3c2)cc1F (stereo not drawn) [Example B246, 2-fluoro-4-(2-{methanesul-fonyl[(2-sulfamoylethyl)car-bamoyl]methyl}-1,3-benzothiazol-6-yl)-N-(2-methoxyethyl)-N-methyl-benzamide] | 2.8 | 94.4
22 | COCCN(C)C(=O)c1ccc(-c2ccc3nc(C(C(=O)NCCS(N)(=O)=O)S(=O)(=O)CC4CC4)sc3c2)cc1F (stereo not drawn) [Example B247, 4-(2-{cyclopropylmethane-sulfonyl[(2-sulfamoyl-ethyl)carbamoyl]methyl}-1,3-benzothiazol-6-yl)-2-fluoro-N-(2-methoxy-ethyl)-N-methylbenzamide] | 6.1 | 127
23 | COCC(C)(C)NC(=O)c1ccc(-c2ccc3nc(C(C(=O)NCCS(N)(=O)=O)S(=O)(=O)CC4CC4)sc3c2)cc1 (stereo not drawn) [Example B248, 4-(2-{cyclopropylmethane-sulfonyl[(2-sulfamoyl-ethyl)carbamoyl]methyl}-1,3-benzothiazol-6-yl)-N-(1-methoxy-2-methyl-propan-2-yl)benzamide] | 7.5 | 17.6
24 | COCC(C)(C)NC(=O)c1ccc(-c2ccc3nc(C(C(=O)NCCS(N)(=O)=O)S(=O)(=O)Cc4ccc(OC(F)(F)F)cc4)sc3c2)cc1 (stereo not drawn) [Example B249, N-(1-methoxy-2-methyl-propan-2-yl)-4-(2-{[(2-sulfamoylethyl)carbamoyl][4-(trifluoromethoxy)phen-yl]methanesulfonyl-methyl}-1,3-benzothiazol-6-yl)benzamide] | 8.3 | 29.4
25 | COC[C@H](C)NC(=O)c1ccc(-c2ccc3nc(C(C(=O)NCCS(N)(=O)=O)S(=O)(=O)Cc4ccc(OC(F)(F)F)cc4)sc3c2)cc1 (stereo partly drawn) [Example B250, N-[(2S)-1-methoxypropan-2-yl]-4-(2-{[(2-sulfamoyl-ethyl)carbamoyl][4-(trifluoromethoxy)phen-yl]methanesulfonylmethyl}-1,3-benzothiazol-6-yl)ben-zamide] | 5.3 | 38.4
26 | C[C@H]1CN(C(=O)c2ccc(-c3ccc4nc(C(C(=O)NCCS(N)(=O)=O)S(=O)(=O)CC5CC5)sc4c3)cc2)CCO1 (stereo partly drawn) [Example B251, 2-cyclopropylmethane-sulfonyl-2-(6-{4-[(2S)-2-methylmorpholine-4-carbonyl]phenyl}-1,3-benzothiazol-2-yl)-N-(2-sulfamoylethyl)acetamide] | 2.6 | 363
27 | Cc1nnc(CNC(=O)C(c2nc3ccc(-c4ccc(O)cc4)cc3s2)S(=O)(=O)Cc2ccccc2)o1 (stereo not drawn) [Example B254, 2-[6-(4-hydroxyphenyl)-1,3-benzothiazol-2-yl]-N-[(5-methyl-1,3,4-oxadiazol-2-yl)methyl]-2-phenylmethanesulfonyl-acetamide] | 294 | 259

— patent publication US8987314B2, “Amide, urea or sulfone amide linked benzothiazole inhibitors of endothelial lipase” (Bristol-Myers Squibb Company, priority 2012, dated 2015)
